Measured values as given in ChEMBL document CHEMBL2331167, “Inhibitory effect of novel somatostatin peptide analogues on human cancer cell growth based on the selective inhibition of DNA polymerase β” (Bioorg Med Chem, 2013).
Active and inactive are the calls of the source. The rule behind the calls is not given here.

What was measured:
HCT-116 [1] = experiment: Cytotoxicity against p53 -/- human HCT116 cells assessed as growth inhibition at 200 uM incubated for 24 hrs by WST-1 assay; type: functional, cell-based
HCT-116 [2] = experiment: Cytotoxicity against p53 +/+ human HCT116 cells assessed as growth inhibition at 200 uM incubated for 24 hrs by WST-1 assay; type: functional, cell-based
HCT-116 [3] = experiment: Cytotoxicity against p53 +/+ human HCT116 cells assessed as growth inhibition incubated for 24 hrs by WST-1 assay; type: functional; conditions: HCT-116, 24 h, read-out: LD50 (the source's name)

Row | Compound | growth inhibition (GI) (HCT-116 [1]) | growth inhibition (GI) (HCT-116 [2]) | CC50 (HCT-116 [3]) [µM]
1 | CC(C)[C@H](NC(=O)[C@H](Cc1ccc(O)cc1)NC(=O)OC(C)(C)C)C(=O)Nc1cccc2ccccc12 | Active | Active | –
2 | CC(C)(C)OC(=O)NCCC(=O)Nc1cccc2ccccc12 | inactive | inactive | –
3 | CC(C)C[C@H](NC(=O)[C@H](Cc1ccc(O)cc1)NC(=O)OC(C)(C)C)C(=O)Nc1cccc2ccccc12 | Active | Active | –
4 | CC(C)(C)OC(=O)N[C@@H](Cc1ccc(O)cc1)C(=O)N[C@@H](Cc1ccccc1)C(=O)Nc1cccc2ccccc12 | Active | Active | 30.7
5 | CC(C)(C)OC(=O)NCCCCC(=O)Nc1cccc2ccccc12 | inactive | inactive | –
6 | CC(C)(C)OC(=O)N[C@@H](Cc1ccc(O)cc1)C(=O)N[C@@H](CC(=O)O)C(=O)Nc1cccc2ccccc12 | inactive | inactive | –
7 | CC(C)(C)OC(=O)NCCCCCCC(=O)Nc1cccc2ccccc12 | inactive | inactive | –
8 | CC(C)(C)OC(=O)N[C@@H](Cc1ccc(O)cc1)C(=O)N[C@@H](CCC(=O)O)C(=O)Nc1cccc2ccccc12 | inactive | inactive | –
